Test results published in patent US10913745B2, “Octahydro-pyrrolo[3,4-c]-pyrrole derivatives and analogs thereof as autotaxin inhibitors” (Hoffmann-La Roche Inc., priority 2013, dated 2021).

Molecular target: ATX (human His-tagged) (Homo sapiens (Human), UniProt Q13822)
Experiment: Human ATX enzyme inhibition assay (fluorescence quenching, MR121 substrate)
Type: biochemical
Settings: MR121 substrate 1 μM, ATX 30 nM final, 30° C.
Description: Human ATX Enzyme Inhibition Assay
ATX inhibition was measured by a fluorescence quenching assay using a specifically labeled substrate analogue (MR121 substrate). To obtain this MR121 substrate, BOC and TBS protected 6-amino-hexanoic acid (R)-3-({2-[3-(2-{2-[2-(2-amino-ethoxy)-ethoxy]-ethoxy}-ethoxy)-propionylamino]-ethoxy}-hydroxy-phosphoryloxy)-2-hydroxy-propyl ester (Ferguson et al., Org Lett 2006, 8 (10), 2023) was labeled with MR121 fluorophore (CAS 185308-24-1, 1-(3-carboxypropyl)-11-ethyl-1,2,3,4,8,9,10,11-octahydro-dipyrido[3,2-b:2′,3′-i]phenoxazin-13-ium) on the free amine of the ethanolamine side and then, after deprotection, subsequently with tryptophan on the side of the aminohexanoic acid. Assay working solutions were made as follows: Assay buffer (50 mM Tris-HCl, 140 mM NaCl, 5 mM KCl, 1 mM CaCl2, 1 mM MgCl2, 0.01% Triton-X-100, pH 8.0; ATX solution: ATX (human His-tagged) stock solution (1.08 mg/mL in 20 mM bicine, pH 8.5, 0.15 M NaCl, 10% glycerol, 0.3% CHAPS, 0.02% NaN3), diluted to 1.4-2.5× final concentration in assay buffer; MR121 substrate solution: MR121 substrate stock solution (800 μM MR121 substrate in DMSO), diluted to 2-5× final concentration in assay buffer. Test compounds (10 mM stock in DMSO, 8 μL) were obtained in 384 well sample plates (Corning Costar #3655) and diluted with 8 μL DMSO. Row-wise serial dilutions were made by transferring 8 μL cpd solution to the next row up to row O. The compound and control solutions were mixed five times and 2 μL were transferred to 384 well assay plates (Corning Costar #3702). Then, 15 μL of 41.7 nM ATX solution was added (30 nM final concentration), mixed five times and then incubated for 15 minutes at 30° C. 10 μL of MR121 substrate solution was added (1 μM final concentration), mixed 30 times and then incubated for 15 minutes at 30° C.

| SMILES | IC50 [nM] |
| --- | --- |
| O=C(OCc1cc(Cl)cc(Cl)c1)N1C[C@@H]2CN(C(=O)c3ccc(O)cn3)C[C@@H]2C1 [Example 1.01, (3aR,6aS)-3,5-dichlorobenzyl 5-(5-hydroxypicolinoyl)hexahydropyrrolo[3,4-c]pyrrole-2(1H)-carboxylate] | 293 |
| CS(=O)(=O)c1cc(Cl)cc(COC(=O)N2C[C@@H]3CN(C(=O)c4ccc(S(N)(=O)=O)cc4)C[C@H]3C2)c1 [Example 7, (3aS,6aS)-5-(4-Sulfamoyl-benzoyl)-hexahydro-pyrrolo[3,4-c]pyrrole-2-carboxylic acid 3-chloro-5-methanesulfonyl-benzyl ester] | 14.5 |
